From patent US8541588B2, “Sulfonamide derivatives” (Pfizer Limited, priority 2009, dated 2013)
pIC50: −log10 of the molar value. Where a name gives a salt, the structure may show the parent alone.

molecular target: T1, Nav1.7 (or SCN9A) channel; HEK cells stably transfected with hSCN9A (Homo sapiens, UniProt Q15858); experiment: Nav1.7 block, PatchXpress 7000 automated whole-cell voltage clamp, estimated IC50 (EIC50); type: cell-based; settings: PatchXpress platform; hSCN9A HEK cells held at V1/2 of inactivation; estimated IC50
T1 construct: expressed in transfected cells
T1 sequence (Q15858 whole entry): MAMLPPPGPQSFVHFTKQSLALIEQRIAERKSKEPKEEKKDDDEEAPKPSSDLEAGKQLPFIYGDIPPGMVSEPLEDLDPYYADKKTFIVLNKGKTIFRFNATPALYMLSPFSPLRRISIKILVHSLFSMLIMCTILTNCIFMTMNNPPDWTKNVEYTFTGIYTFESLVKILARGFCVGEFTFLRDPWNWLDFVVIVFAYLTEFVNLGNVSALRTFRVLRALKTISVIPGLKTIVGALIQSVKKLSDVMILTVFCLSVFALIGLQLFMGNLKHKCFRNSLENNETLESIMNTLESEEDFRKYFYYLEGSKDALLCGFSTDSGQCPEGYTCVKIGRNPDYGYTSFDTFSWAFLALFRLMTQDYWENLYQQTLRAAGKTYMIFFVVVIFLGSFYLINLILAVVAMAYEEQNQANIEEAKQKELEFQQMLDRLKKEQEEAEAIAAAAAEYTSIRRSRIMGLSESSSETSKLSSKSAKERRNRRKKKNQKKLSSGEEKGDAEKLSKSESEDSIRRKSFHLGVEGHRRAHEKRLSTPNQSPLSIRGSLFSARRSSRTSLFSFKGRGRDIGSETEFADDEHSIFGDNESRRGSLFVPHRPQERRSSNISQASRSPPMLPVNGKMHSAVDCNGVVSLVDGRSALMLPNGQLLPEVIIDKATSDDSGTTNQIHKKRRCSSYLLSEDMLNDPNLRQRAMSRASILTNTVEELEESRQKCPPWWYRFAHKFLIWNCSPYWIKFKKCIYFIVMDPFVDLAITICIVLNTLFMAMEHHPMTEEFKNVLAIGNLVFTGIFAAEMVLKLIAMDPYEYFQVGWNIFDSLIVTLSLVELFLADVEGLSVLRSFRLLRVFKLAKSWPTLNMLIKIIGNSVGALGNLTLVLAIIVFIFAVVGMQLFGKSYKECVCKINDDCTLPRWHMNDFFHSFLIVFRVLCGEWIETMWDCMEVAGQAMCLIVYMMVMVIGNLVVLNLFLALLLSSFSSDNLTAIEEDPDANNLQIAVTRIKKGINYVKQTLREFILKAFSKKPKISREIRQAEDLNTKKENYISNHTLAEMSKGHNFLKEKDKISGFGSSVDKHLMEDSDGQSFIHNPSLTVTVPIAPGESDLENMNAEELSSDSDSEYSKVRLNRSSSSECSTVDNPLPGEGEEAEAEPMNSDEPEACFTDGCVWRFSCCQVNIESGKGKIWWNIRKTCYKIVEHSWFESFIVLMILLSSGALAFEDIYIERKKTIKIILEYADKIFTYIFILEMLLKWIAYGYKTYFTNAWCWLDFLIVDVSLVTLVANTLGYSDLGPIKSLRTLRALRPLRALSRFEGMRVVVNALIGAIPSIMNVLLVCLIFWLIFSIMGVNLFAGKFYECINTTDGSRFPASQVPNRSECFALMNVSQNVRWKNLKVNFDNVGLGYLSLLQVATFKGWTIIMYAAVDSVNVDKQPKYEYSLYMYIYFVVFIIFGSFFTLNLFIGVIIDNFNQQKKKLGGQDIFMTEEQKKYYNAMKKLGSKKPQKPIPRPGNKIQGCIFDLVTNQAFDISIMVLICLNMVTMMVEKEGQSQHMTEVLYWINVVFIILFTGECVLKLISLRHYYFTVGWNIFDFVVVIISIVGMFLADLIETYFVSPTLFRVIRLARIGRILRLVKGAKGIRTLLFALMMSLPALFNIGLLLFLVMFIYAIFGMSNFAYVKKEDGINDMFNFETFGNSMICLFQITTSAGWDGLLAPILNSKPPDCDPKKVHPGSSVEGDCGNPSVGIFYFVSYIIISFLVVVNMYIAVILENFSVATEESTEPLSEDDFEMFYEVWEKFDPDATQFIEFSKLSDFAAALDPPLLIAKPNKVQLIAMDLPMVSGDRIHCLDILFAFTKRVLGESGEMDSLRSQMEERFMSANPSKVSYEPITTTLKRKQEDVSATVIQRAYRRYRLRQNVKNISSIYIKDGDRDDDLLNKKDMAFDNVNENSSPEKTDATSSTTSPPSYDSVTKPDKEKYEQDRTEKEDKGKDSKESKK

| pIC50 | IC50 [nM] | Structure (SMILES) |
| --- | --- | --- |
| 4.41 |  | O=S(=O)(Nc1ncns1)c1cc(F)c(Oc2ccn(Cc3ccc(Cl)cc3)n2)c(F)c1 [Example 265, 4-{[1-(4-chlorobenzyl)-1H-pyrazol-3-yl]oxy}-3,5-difluoro-N-1,2,4-thiadiazol-5-ylbenzenesulfonamide] |
| 7.00 |  | O=S(=O)(Nc1ncns1)c1cc(F)c(Oc2ccccc2-c2ccccc2)cc1F [Example 266, 4-(biphenyl-2-yloxy)-2,5-difluoro-N-1,2,4-thiadiazol-5-ylbenzenesulfonamide] |
| 6.72 |  | O=S(=O)(Nc1ncns1)c1cc(F)c(Oc2ccccc2-c2ccccc2)cc1Cl [Example 267, 4-(biphenyl-2-yloxy)-2-chloro-5-fluoro-N-1,2,4-thiadiazol-5-ylbenzenesulfonamide] |
| 5.51 |  | N#Cc1cc(Oc2ccccc2-c2ccccc2)ccc1S(=O)(=O)Nc1ncns1 [Example 268, 4-(biphenyl-2-yloxy)-2-cyano-N-1,2,4-thiadiazol-5-ylbenzenesulfonamide] |
| 6.32 |  | O=S(=O)(Nc1ncns1)c1ccc(Oc2ccccc2-c2ccccc2)c(F)c1F [Example 269, 4-(biphenyl-2-yloxy)-2,3-difluoro-N-1,2,4-thiadiazol-5-ylbenzenesulfonamide] |
| 7.52 |  | O=S(=O)(Nc1ncns1)c1cc(Cl)c(Oc2ccccc2-c2ccccc2)cc1F [Example 270, 4-(biphenyl-2-yloxy)-5-chloro-2-fluoro-N-1,2,4-thiadiazol-5-ylbenzenesulfonamide] |
| 5.94 |  | O=S(=O)(Nc1cscn1)c1ccc(Oc2ccccc2-c2ccccc2)c(F)c1 [Example 271, 4-(biphenyl-2-yloxy)-3-fluoro-N-thiazol-4-yl-benzenesulfonamide] |
| 6.09 |  | Cn1nccc1-c1cc(Cl)ccc1Oc1ccc(S(=O)(=O)Nc2cscn2)cc1F [Example 272, 4-[4-chloro-2-(2-methyl-2H-pyrazol-3-yl)-phenoxy]-3-fluoro-N-thiazol-4-yl-benzenesulfonamide] |
| 5.66 |  | O=S(=O)(Nc1cscn1)c1ccc(Oc2ccc(-c3ccccc3)cc2)c(F)c1 [Example 273, 4-(biphenyl-4-yloxy)-3-fluoro-N-thiazol-4-yl-benzenesulfonamide] |
|  | >10000 | O=S(=O)(Nc1cscn1)c1ccc(Oc2cc(C(F)(F)F)nn2-c2ccccc2)c(F)c1 [Example 274, 3-fluoro-4-(2-phenyl-5-trifluoromethyl-2H-pyrazol-3-yloxy)-N-thiazol-4-yl-benzenesulfonamide] |
| 7.15 |  | Cn1nccc1-c1cc(Cl)ccc1Oc1ccc(S(=O)(=O)Nc2ncc(F)s2)cc1F [Example 275, 4-[4-chloro-2-(2-methyl-2H-pyrazol-3-yl)-phenoxy]-3-fluoro-N-(5-fluoro-thiazol-2-yl)-benzenesulfonamide] |
| 6.26 |  | O=S(=O)(Nc1nccs1)c1ccc(Oc2ccccc2-c2ccccc2)cc1 [Example 276, 4-(biphenyl-2-yloxy)-N-thiazol-2-yl-benzenesulfonamide] |
| 5.95 |  | Cc1cc(Oc2ccc(S(=O)(=O)Nc3nccs3)cc2)n(-c2ccccc2)n1 [Example 277, 4-(5-methyl-2-phenyl-2H-pyrazol-3-yloxy)-N-thiazol-2-yl-benzenesulfonamide] |
|  | 2660 | O=S(=O)(Nc1nccs1)c1ccc(Oc2ccccc2-c2ccccc2)nc1 [Example 278, 6-(biphenyl-2-yloxy)-pyridine-3-sulfonic acid thiazol-2-ylamide] |
| 7.15 |  | CC(C)(C)n1nc(C(F)(F)F)cc1-c1ccc(Oc2ccc(S(=O)(=O)Nc3nccs3)cc2C#N)cc1 [Example 279, 4-[4-(2-tertbutyl-5-trifluoromethyl-2H-pyrazol-3-yl)-phenoxy]-3-cyano-N-thiazol-2-yl-benzenesulfonamide] |
| 7.05 |  | CCn1nc(C(F)(F)F)cc1-c1ccc(Oc2ccc(S(=O)(=O)Nc3nccs3)cc2C#N)cc1 [Example 280, 3-cyano-4-[4-(2-ethyl-5-trifluoromethyl-2H-pyrazol-3-yl)-phenoxy]-N-thiazol-2-yl-benzenesulfonamide] |
| 6.92 |  | CC(C)(C)n1nc(C(F)(F)F)cc1-c1ccc(Oc2ccc(S(=O)(=O)Nc3ncc(F)s3)cc2C#N)cc1 [Example 281, 4-(4-(1-tert-butyl-3-(trifluoromethyl)-1H-pyrazol-5-yl)phenoxy)-3-cyano-N-(5-fluorothiazol-2-yl)benzenesulfonamide] |
| 6.74 |  | Cn1nc(C(F)(F)F)cc1-c1ccc(Oc2ccc(S(=O)(=O)Nc3nccs3)cc2C#N)cc1 [Example 282, 3-cyano-4-[4-(2-methyl-5-trifluoromethyl-2H-pyrazol-3-yl)-phenoxy]-N-thiazol-2-yl-benzenesulfonamide] |

same assay, conditions: estimated IC50; hSCN9A HEK cells, PatchXpress platform; Examples 283-814

| pIC50 | IC50 [nM] | Structure (SMILES) |
| --- | --- | --- |
| 6.24 |  | CC(C)n1cc(-c2cc(Cl)ccc2Oc2ccc(S(=O)(=O)Nc3ncns3)cc2C#N)cn1 [Example 283, 4-[4-chloro-2-(1-isopropyl-1H-pyrazol-4-yl)phenoxy]-3-cyano-N-1,2,4-thiadiazol-5-ylbenzenesulfonamide] |
| 5.80 |  | N#Cc1cncc(-c2cc(C(F)(F)F)ccc2Oc2ccc(S(=O)(=O)Nc3ncns3)cc2C#N)c1 [Example 284, 3-cyano-4-[2-(5-cyanopyridin-3-yl)-4-(trifluoromethyl)phenoxy]-N-1,2,4-thiadiazol-5-ylbenzenesulfonamide] |
| 6.21 |  | CC(C)(C)n1nccc1-c1cc(F)ccc1Oc1ccc(S(=O)(=O)Nc2ncns2)cc1C#N [Example 285, 4-[2-(1-tert-butyl-1H-pyrazol-5-yl)-4-fluorophenoxy]-3-cyano-N-1,2,4-thiadiazol-5-ylbenzenesulfonamide] |
| 6.28 |  | Cn1ccc(-c2cc(Cl)ccc2Oc2ccc(S(=O)(=O)Nc3ncns3)cc2C#N)n1 [Example 286, 4-[4-chloro-2-(1-methyl-1H-pyrazol-3-yl)phenoxy]-3-cyano-N-1,2,4-thiadiazol-5-ylbenzenesulfonamide] |
|  | >1000 | N#Cc1cc(S(=O)(=O)Nc2ncns2)ccc1Oc1ccc(-n2cc(COC(=O)C(F)(F)F)cn2)cc1 [Example 287, [1-(4-{2-cyano-4-[(1,2,4-thiadiazol-5-ylamino)sulfonyl]phenoxy}phenyl)-1H-pyrazol-4-yl]methyl trifluoroacetate] |
|  | >1000 | N#Cc1cc(S(=O)(=O)Nc2ncns2)ccc1Oc1ccc(-n2cc(CO)cn2)cc1 [Example 288, 3-cyano-4-{4-[4-(hydroxymethyl)-1H-pyrazol-1-yl]phenoxy}-N-1,2,4-thiadiazol-5-ylbenzenesulfonamide] |
| 6.41 |  | N#Cc1cc(S(=O)(=O)Nc2ncns2)ccc1Oc1ccc(I)cc1-c1cn[nH]c1 [Example 289, 3-cyano-4-[4-iodo-2-(1H-pyrazol-4-yl)phenoxy]-N-1,2,4-thiadiazol-5-ylbenzenesulfonamide] |
| 5.70 |  | CCn1nc(C(F)(F)F)cc1-c1cccc(Oc2ccc(S(=O)(=O)Nc3nc(C)ns3)cc2C#N)c1 [Example 290, 3-cyano-4-{3-[1-ethyl-3-(trifluoromethyl)-1H-pyrazol-5-yl]phenoxy}-N-(3-methyl-1,2,4-thiadiazol-5-yl)benzenesulfonamide] |
| 5.60 |  | CCn1nc(C(F)(F)F)cc1-c1ccc(Oc2ccc(S(=O)(=O)Nc3nc(C)ns3)cc2C#N)cc1 [Example 291, 3-cyano-4-{4-[1-ethyl-3-(trifluoromethyl)-1H-pyrazol-5-yl]phenoxy}-N-(3-methyl-1,2,4-thiadiazol-5-yl)benzenesulfonamide] |
| 7.36 |  | Cn1nc(C(F)(F)F)cc1-c1ccc(Oc2ccc(S(=O)(=O)Nc3nccs3)cc2C#N)c(C#N)c1 [Example 292, 3-cyano-4-{2-cyano-4-[1-methyl-3-(trifluoromethyl)-1H-pyrazol-5-yl]phenoxy}-N-1,3-thiazol-2-ylbenzenesulfonamide] |
| 7.03 |  | Cn1nc(C(F)(F)F)cc1-c1ccc(Oc2ccc(S(=O)(=O)Nc3ncns3)cc2C#N)c(C#N)c1 [Example 293, 3-cyano-4-{2-cyano-4-[1-methyl-3-(trifluoromethyl)-1H-pyrazol-5-yl]phenoxy}-N-1,2,4-thiadiazol-5-ylbenzenesulfonamide] |
| 7.47 |  | Cc1nsc(NS(=O)(=O)c2cc(Cl)c(Oc3ccc(Cl)cc3-c3ccnn3C)cc2F)n1 [Example 294, 5-chloro-4-[4-chloro-2-(1-methyl-1H-pyrazol-5-yl)phenoxy]-2-fluoro-N-(3-methyl-1,2,4-thiadiazol-5-yl)benzenesulfonamide] |
| 6.89 |  | Cn1nccc1-c1cc(F)ccc1Oc1cc(F)c(S(=O)(=O)Nc2ccncn2)cc1Cl [Example 295, 5-chloro-2-fluoro-4-[4-fluoro-2-(1-methyl-1H-pyrazol-5-yl)phenoxy]-N-pyrimidin-4-ylbenzenesulfonamide] |
| 7.60 |  | Cn1nc(C(F)(F)F)cc1-c1ccc(Oc2cc(F)c(S(=O)(=O)Nc3nccs3)cc2Cl)c(C#N)c1 [Example 296, 5-chloro-4-{2-cyano-4-[1-methyl-3-(trifluoromethyl)-1H-pyrazol-5-yl]phenoxy}-2-fluoro-N-1,3-thiazol-2-ylbenzenesulfonamide] |
| 6.00 |  | Cn1nc(C(F)(F)F)cc1-c1ccc(Oc2cc(F)c(S(=O)(=O)Nc3nncs3)cc2Cl)c(C#N)c1 [Example 297, 5-chloro-4-{2-cyano-4-[1-methyl-3-(trifluoromethyl)-1H-pyrazol-5-yl]phenoxy}-2-fluoro-N-1,3,4-thiadiazol-2-ylbenzenesulfonamide] |
| 6.85 |  | Cn1nccc1-c1cc(F)ccc1Oc1cc(F)c(S(=O)(=O)Nc2nncs2)cc1Cl [Example 298, 5-chloro-2-fluoro-4-[4-fluoro-2-(1-methyl-1H-pyrazol-5-yl)phenoxy]-N-1,3,4-thiadiazol-2-ylbenzenesulfonamide] |
| 7.41 |  | O=S(=O)(Nc1nncs1)c1cc(Cl)c(Oc2ccc(Cl)cc2-c2ccn[nH]2)cc1F [Example 300, 5-chloro-4-[4-chloro-2-(1H-pyrazol-5-yl)phenoxy]-2-fluoro-N-1,3,4-thiadiazol-2-ylbenzenesulfonamide] |
| 6.55 |  | Cn1nccc1-c1cc(Cl)ccc1Oc1cc(F)c(S(=O)(=O)Nc2nncs2)cc1F [Example 301, 4-[4-chloro-2-(1-methyl-1H-pyrazol-5-yl)phenoxy]-2,5-difluoro-N-1,3,4-thiadiazol-2-ylbenzenesulfonamide] |
